The text below walks through data of US20230265151A1, “GIP/GLP1 CO-AGONIST COMPOUNDS” (priority 2020, published 2023).

Assay [1] deals with T1, human Gcg receptor (hGcgR) (Homo sapiens, UniProt P47871).
T1 construct: expressed in transfected cells; crude membranes
The assay can be described thus: [125I]-Glucagon binding, SPA with membranes of HEK293 cells expressing hGcgR.

Another assay addresses hGLP-1R (Homo sapiens, UniProt P43220). As to the kind of experiment: Functional cAMP formation (HTRF) in HEK-293 clonal cells expressing hGLP-1R, 0.1% bovine casein, without or with 1.0% human serum albumin. Format: cell-based. Further details: expressed in transfected cells. The gist of the method:
(§1)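 Cells were stimulated with peptide for 30 min at 37° C, then lysed in buffer carrying cAMP-d2 and anti-cAMP Eu3+-cryptate for a competitive HTRF read after at least 60 min at room temperature. The 665/620 nm ratio was converted to nM cAMP against a standard curve.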
For orientation: Changes in cAMP serve as a functional read-out for many G protein-coupled receptors.

The target in another assay is T2, hGCGR (Homo sapiens, UniProt P47871).
T2 construct: expressed in transfected cells
T2 sequence (P47871 26-477): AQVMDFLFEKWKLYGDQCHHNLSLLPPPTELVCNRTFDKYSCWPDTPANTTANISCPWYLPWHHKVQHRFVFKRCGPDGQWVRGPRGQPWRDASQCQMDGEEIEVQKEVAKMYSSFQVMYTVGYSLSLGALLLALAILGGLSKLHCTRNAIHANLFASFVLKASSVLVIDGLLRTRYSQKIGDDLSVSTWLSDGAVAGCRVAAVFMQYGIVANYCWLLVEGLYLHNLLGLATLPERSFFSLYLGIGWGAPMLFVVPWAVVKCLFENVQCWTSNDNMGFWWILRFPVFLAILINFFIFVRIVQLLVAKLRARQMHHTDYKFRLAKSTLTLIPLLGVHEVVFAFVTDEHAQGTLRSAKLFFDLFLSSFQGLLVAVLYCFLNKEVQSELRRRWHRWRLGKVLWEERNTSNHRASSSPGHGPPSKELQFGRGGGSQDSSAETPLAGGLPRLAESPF
As to the kind of experiment: Functional cAMP formation (HTRF) in HEK-293 clonal cells expressing hGCGR, 0.1% bovine casein, without or with 1.0% human serum albumin. It is filed as cell-based. The gist of the method:
as §1

Assay [2] has as its target T3, human GLP-1 receptor (hGLP-1R) (Homo sapiens, UniProt P43220).
T3 construct: expressed in transfected cells; crude membranes
As to the kind of experiment: [125I]-GLP-1 binding, SPA with membranes of HEK293 cells expressing hGLP-1R.

The target in another assay is T4, hGIPR (Homo sapiens, UniProt P48546).
T4 construct: expressed in transfected cells
T4 sequence (P48546 22-466): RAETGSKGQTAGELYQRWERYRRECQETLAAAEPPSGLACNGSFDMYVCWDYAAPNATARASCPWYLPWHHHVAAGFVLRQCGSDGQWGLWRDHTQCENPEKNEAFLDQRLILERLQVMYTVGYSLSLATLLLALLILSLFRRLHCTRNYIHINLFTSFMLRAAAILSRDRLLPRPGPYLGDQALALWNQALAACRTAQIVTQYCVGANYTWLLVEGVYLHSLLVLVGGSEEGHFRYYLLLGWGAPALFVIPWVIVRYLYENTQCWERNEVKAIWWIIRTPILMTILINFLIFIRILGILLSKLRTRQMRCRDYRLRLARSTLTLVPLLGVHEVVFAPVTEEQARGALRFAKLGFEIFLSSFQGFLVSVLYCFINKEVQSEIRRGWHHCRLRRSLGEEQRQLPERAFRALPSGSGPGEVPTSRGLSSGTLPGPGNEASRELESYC
The assay can be described thus: Functional cAMP formation (HTRF) in HEK-293 clonal cells expressing hGIPR, 0.1% bovine casein, without or with 1.0% human serum albumin. It is filed as cell-based. As to conditions: for Emax: percent of maximal response to GIP(1-42)NH2. The method, boiled down: as §1

Setting [3] is: hGLP-1R EC50, nM (SEM, n), cAMP, 37° C., 0.1% bovine casein (no human serum albumin), geometric mean.
Setting [4] is: hGCGR EC50, nM (SEM, n), cAMP, 37° C., 0.1% bovine casein (no human serum albumin), geometric mean.
Where [5] appears, read: hGCGR EC50, nM (SEM, n), cAMP, 37° C., 0.1% bovine casein and 1.0% human serum albumin, geometric mean (SEM, n).
The mark [6] stands for this setting: HEK293, read-out: hGIPR Emax, % ± SEM, cAMP, 37° C., 0.1% bovine casein and 1.0% human serum albumin.
[7] abbreviates: hGIPR EC50, nM (SEM, n), cAMP, 37° C., 0.1% bovine casein (no human serum albumin), geometric mean.

Read-outs that look alike come from different tables or passages of the source. *1 amine or outer side, *2 acyl side, *3 side chain or, on linkers, in order; H or OH if unused. Where a SMILES comes first, the peptide text is derived from it. Side-chain parts run from the residue outwards. [ ]: non-standard residue; d: D form. The star is where a group is joined. Decanoyl(10-(4-HOOC-PhO)) = O=C(O)c1ccc(OCCCCCCCCCC(=O)*)cc1; αMePhe(2-F) = C[C@](N)(Cc1ccccc1F)C(=O)O; γGlu = O=C(O)[C@H](CCC(=O)[*:2])N[*:1]; αMeY = C[C@](N)(Cc1ccc(O)cc1)C(=O)O; αMeL = CC(C)C[C@](C)(N)C(=O)O; Orn = NCCC[C@H](N)C(=O)O; AEEA = NCCOCCOCC(=O)O; Aib = CC(C)(N)C(=O)O Some results are limits rather than exact numbers.

T1 sequence (P47871 26-477): as the sequence (P47871 26-477) above
Chain of hGLP-1R (P43220 24-463): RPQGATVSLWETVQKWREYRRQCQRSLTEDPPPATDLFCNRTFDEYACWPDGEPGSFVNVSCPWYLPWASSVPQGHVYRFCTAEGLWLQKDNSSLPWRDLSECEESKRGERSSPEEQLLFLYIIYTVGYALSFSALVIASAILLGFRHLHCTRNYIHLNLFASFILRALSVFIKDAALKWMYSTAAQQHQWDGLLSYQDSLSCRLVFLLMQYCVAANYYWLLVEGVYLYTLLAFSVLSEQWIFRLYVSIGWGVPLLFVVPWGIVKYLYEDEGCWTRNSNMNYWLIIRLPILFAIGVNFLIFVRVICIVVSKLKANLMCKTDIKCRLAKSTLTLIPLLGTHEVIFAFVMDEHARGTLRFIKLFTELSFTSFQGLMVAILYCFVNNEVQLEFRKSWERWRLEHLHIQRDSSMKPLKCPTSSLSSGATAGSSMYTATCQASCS
T3 sequence (P43220 24-463): as above

Regarding `CC[C@H](C)[C@H](NC(=O)[C@H](CC(C)C)NC(=O)[C@](C)(Cc1ccc(O)cc1)NC(=O)[C@H](CCCCNC(=O)COCCOCCNC(=O)COCCOCCNC(=O)CC[C@H](NC(=O)CC[C@H](NC(=O)CCCCCCCCCOc1ccc(C(=O)O)cc1)C(=O)O)C(=O)O)NC(=O)[C@@H](NC(=O)[C@H](Cc1ccccc1)NC(=O)[C@H](CCCN)NC(=O)C(C)(C)NC(=O)[C@H](CCC(N)=O)NC(=O)[C@H](C)NC(=O)[C@H](CCC(N)=O)NC(=O)[C@H](CCCN)NC(=O)[C@H](CC(=O)O)NC(=O)[C@H](CC(C)C)NC(=O)[C@](C)(CC(C)C)NC(=O)[C@@H](NC(=O)C(C)(C)NC(=O)[C@H](Cc1ccncc1)NC(=O)[C@H](CC(=O)O)NC(=O)[C@H](CO)NC(=O)[C@@H](NC(=O)[C@](C)(Cc1ccccc1F)NC(=O)[C@@H](NC(=O)CNC(=O)[C@H](CCC(=O)O)NC(=O)C(C)(C)NC(=O)[C@@H](N)Cc1ccc(O)cc1)[C@@H](C)O)[C@@H](C)O)[C@@H](C)CC)[C@@H](C)CC)C(=O)N[C@@H](CCCCNC(=O)COCCOCCNC(=O)COCCOCCNC(=O)CC[C@H](NC(=O)CC[C@H](NC(=O)CCCCCCCCCOc1ccc(C(=O)O)cc1)C(=O)O)C(=O)O)C(=O)NCC(=O)NCC(=O)N1CCC[C@H]1C(=O)N[C@@H](CO)C(=O)N[C@@H](CO)C(=O)NCC(=O)N[C@@H](C)C(=O)N1CCC[C@H]1C(=O)N1CCC[C@H]1C(=O)N1CCC[C@H]1C(=O)N[C@@H](CO)C(N)=O` [Example 475], the Ki turned out to be 139 nM in assay [1] and 0.189 nM in assay [2]. For the same compound, the Emax at hGLP-1R (HEK293, read-out: hGLP-1R Emax, % ± SEM, cAMP, 37° C., 0.1% bovine casein, percent of maximal response to GLP-1(7-36)NH2, arithmetic mean) was 116%; at hGIPR (setting [6]), 84.6%. In addition, the EC50 on hGLP-1R (setting [3]) was 0.143 nM; at hGCGR (setting [4]), more than 9950 nM; on hGCGR (setting [5]), more than 9950 nM; at hGIPR (setting [7]), 0.012 nM; at hGIPR (hGIPR EC50, nM (SEM, n), cAMP, 37° C., 0.1% bovine casein and 1.0% human serum albumin, geometric mean (SEM, n)) it was 0.211 nM.
On to `CC[C@H](C)[C@H](NC(=O)[C@H](CC(C)C)NC(=O)[C@](C)(Cc1ccc(O)cc1)NC(=O)[C@@H](CCC(=O)O)NC(=O)[C@@H](NC(=O)[C@H](Cc1ccccc1)NC(=O)[C@H](CCC(=O)O)NC(=O)C(C)(C)NC(=O)[C@H](CCC(N)=O)NC(=O)[C@H](C)NC(=O)[C@H](CCCCNC(=O)COCCOCCNC(=O)COCCOCCNC(=O)COCCOCCNC(=O)CC[C@H](NC(=O)CCCCCCCCCCCCC(=O)O)C(=O)O)NC(=O)[C@H](CCCN)NC(=O)[C@H](CC(=O)O)NC(=O)[C@H](CC(C)C)NC(=O)[C@](C)(CC(C)C)NC(=O)[C@@H](NC(=O)[C@H](CO)NC(=O)[C@H](Cc1ccncc1)NC(=O)[C@H](CC(=O)O)NC(=O)[C@H](CO)NC(=O)[C@@H](NC(=O)[C@](C)(Cc1ccccc1F)NC(=O)[C@@H](NC(=O)CNC(=O)[C@H](CCC(=O)O)NC(=O)C(C)(C)NC(=O)[C@@H](N)Cc1ccc(O)cc1)[C@@H](C)O)[C@@H](C)O)[C@@H](C)CC)[C@@H](C)CC)C(=O)N[C@@H](CCC(=O)O)C(=O)NCC(=O)NCC(=O)N[C@@H](CCCCNC(=O)COCCOCCNC(=O)COCCOCCNC(=O)COCCOCCNC(=O)CC[C@H](NC(=O)CCCCCCCCCCCCC(=O)O)C(=O)O)C(=O)N[C@@H](CO)C(=O)N[C@@H](CO)C(=O)NCC(=O)N[C@@H](C)C(=O)N1CCC[C@H]1C(=O)N1CCC[C@H]1C(=O)N1CCC[C@H]1C(=O)N[C@@H](CO)C(N)=O` [Example 30], for which the Ki in assay [1] (human GcgR, geometric mean (SEM, n), read-out: Binding Affinity Ki, nM (SEM, n) hGCGR) was more than 966 nM; in assay [2] (human GLP-1R, geometric mean (SEM, n), read-out: Binding Affinity Ki, nM (SEM, n) hGLP-1R) it was 2.66 nM. The EC50 at hGLP-1R (0.1% bovine casein and 1.0% human serum albumin, 37° C., geometric mean, read-out: hGLP-1R EC50, nM (SEM, n)) was 18.3 nM; on hGCGR (0.1% bovine casein and 1.0% human serum albumin, 37° C., geometric mean, read-out: hGCGR EC50, nM (SEM, n)), more than 9950 nM; at hGCGR (cAMP, incubated at 37° C., 0.1% bovine casein (no human serum albumin), geometric mean, read-out: hGCGR EC50, nM (SEM, n)) it was more than 9950 nM; on hGIPR (0.1% bovine casein and 1.0% human serum albumin, 37° C., geometric mean, read-out: hGIPR EC50, nM (SEM, n)) it was 0.337 nM; at hGIPR (cAMP, incubated at 37° C., 0.1% bovine casein (no human serum albumin), geometric mean, read-out: hGIPR EC50, nM (SEM, n)), 0.0175 nM. The Emax at hGLP-1R (HEK293, 0.1% bovine casein and 1.0% human serum albumin, 37° C., percent of maximal response to GLP-1(7-36)NH2, read-out: hGLP-1R Emax, % ± SEM) was 96.5 ± 0.219%; on hGLP-1R (HEK293, percent of maximal response to GLP-1(7-36)NH2, 37° C., 0.1% bovine casein, arithmetic mean, read-out: hGLP-1R Emax, % ± SEM), 97.8 ± 10.7%.
Consider `CC[C@H](C)[C@H](NC(=O)[C@H](CC(C)C)NC(=O)[C@](C)(Cc1ccc(O)cc1)NC(=O)[C@H](CCCCNC(=O)COCCOCCNC(=O)COCCOCCNC(=O)CC[C@H](NC(=O)CCCCCCCCCOc1ccc(C(=O)O)cc1)C(=O)O)NC(=O)[C@@H](NC(=O)[C@H](Cc1ccccc1)NC(=O)[C@H](CCC(=O)O)NC(=O)C(C)(C)NC(=O)[C@H](CCC(N)=O)NC(=O)[C@H](C)NC(=O)[C@H](CCC(N)=O)NC(=O)[C@H](CCCN)NC(=O)[C@H](CC(=O)O)NC(=O)[C@H](CC(C)C)NC(=O)[C@](C)(CC(C)C)NC(=O)[C@@H](NC(=O)C(C)(C)NC(=O)[C@@H](NC(=O)[C@H](CC(=O)O)NC(=O)[C@H](CO)NC(=O)[C@@H](NC(=O)[C@](C)(Cc1ccccc1F)NC(=O)[C@@H](NC(=O)CNC(=O)[C@H](CCC(=O)O)NC(=O)C(C)(C)NC(=O)[C@@H](N)Cc1ccc(O)cc1)[C@@H](C)O)[C@@H](C)O)C(C)C)[C@@H](C)CC)[C@@H](C)CC)C(=O)N[C@@H](CCCCNC(=O)COCCOCCNC(=O)COCCOCCNC(=O)CC[C@H](NC(=O)CCCCCCCCCOc1ccc(C(=O)O)cc1)C(=O)O)C(=O)NCC(=O)NCC(=O)N1CCC[C@H]1C(=O)N[C@@H](CO)C(=O)N[C@@H](CO)C(=O)NCC(=O)N[C@@H](C)C(=O)N1CCC[C@H]1C(=O)N1CCC[C@H]1C(=O)N1CCC[C@H]1C(=O)N[C@@H](CO)C(N)=O` [Example 446] (H-Y[Aib]EGT[αMePhe(2-F)]TSDV[Aib]I[αMeL]LD[Orn]QAQ[Aib]EFIK([AEEA-AEEA-γGlu-Decanoyl(10-(4-HOOC-PhO))])[αMeY]LIK([AEEA-AEEA-γGlu-Decanoyl(10-(4-HOOC-PhO))])GGPSSGAPPPS-NH2), for which the Ki in assay [1] was 109 nM; in assay [2] it was 0.382 nM. The maximal response (Emax) on hGLP-1R (HEK293, read-out: hGLP-1R Emax, % ± SEM, cAMP, 37° C., 0.1% bovine casein and 1.0% human serum albumin, percent of maximal response to GLP-1(7-36)NH2) was found to be 105%; on hGIPR (setting [6]) it was 97%; at hGIPR (HEK293, read-out: hGIPR Emax, % ± SEM, cAMP, 37° C., 0.1% bovine casein, arithmetic mean), 105%. In addition, the EC50 at hGLP-1R (setting [3]) is 0.162 nM; on hGLP-1R (hGLP-1R EC50, nM (SEM, n), cAMP, 37° C., 0.1% bovine casein and 1.0% human serum albumin, geometric mean (SEM, n)) it was 33.5 nM; at hGCGR (setting [4]), more than 9950 nM; at hGCGR (setting [5]), more than 9950 nM; at hGIPR (setting [7]), 0.0164 nM.

By Ki is commonly meant the dissociation constant of the complex between target and ligand, obtained from inhibition or displacement. For orientation: Emax means the size of the effect at its maximum, as opposed to the concentration needed. In general, EC50 refers to the concentration at which the effect is half-maximal.
